Assay results taken from patent publication US5700469A, “HIV-1 core protein fragments” (Medical Research Council, priority 1990, dated 1997).
Where two headings read alike, the source gives them in different places. Where no end group is shown, it is not given here.

Key:
[1] = test system: human leucocyte antigen (HLA) class I molecule; assay: CTL assay: lysis of 51-chromium labelled, HLA-matched B lymphoblastoid target cells sensitized with peptide; type: cell-based; details: for HLA restriction of the peptide (through one or more of the antigens): HLA restrictions not yet fully worked out
Experimental: Peptides in accordance with the invention can also be used for diagnostic purposes. […] Briefly, fresh peripheral blood mononuclear cells (or lymphocytes obtained from biopsy material) are prepared and added at ratios of 50:1, 25:1 and 10:1 to 10^4 51 -chromium labelled B lymphoblastoid cells matched for the relevant HLA molecules. The HLA type of patient is determined in known manner by tissue typing, and B lymphoblastoid cells obtained from a donor of known HLA type (again determined in known manner by tissue typing) and transformed with Epstein Barr using known techniques. A peptide in accordance with the invention, which interacts with the relevant HLA molecule, is also added to the cells in a concentration of 10 to 100 u molar. After 4 hours incubation the supernatant is removed and the released ^51 -chromium measured. The ^51 -chromium released is compared to that released by incubation of labelled cells in detergent, which gives a maximum value, and released by labelled cells incubated in medium alone, which gives a minimum value. If lysis (defined by ^51 -chromium released of at least two times the minimum value) is observed it means that there are cytotoxic T lymphocytes in the patients' mononuclear cells and these are likely to be indicative of infection with HIV.

[2] = test system: human leucocyte antigen (HLA) class I molecule; details: disclosed in prior application EP 0346022; cited from earlier work

| Substance | HLA restriction of the peptide (through one or more of the antigens) [1] | also measured |
| --- | --- | --- |
| CVGGPGHKARVL [p24-23, NH2 -cysteine-valine-glycine-glycine-proline-glycine-histidine-lysine-alanine- arginine-valine-leucine-COOH] | LA-A1 or B7 or B8 |  |
| DLNTMLNTVGGHQAAC [p24-6, NH2 -aspartic acid-leucine-asparagine-threonine-methionine-leucine-asparagine-threonine- valine-glycine-glycine -histidine-glutamine-alanine-alanine-cysteine-COOH] | HLA-A3 or A29 or B44 or B14 |  |
| LEEMMTACQGVGGPGY [p24-22, NH2 -leucine-glutamic acid-glutamic acid-methionine-methionine-threonine-alanine-cysteine-glutamine-glycine -valine-glycine-glycine-proline-glycine-tyrosine-COOH] | HLA-A3 or A29 or B44 or B14 |  |
| NH2 -lysine-arginine-tryptophan-isoleucine-isoleucine-leucine-glycine-leucine- asparagine-lysine-isoleucine-valine-arginine-methionine-tyrosine -cysteine-COOH [p24-14] |  | HLA class I molecule with which the peptide interacts specifically [2]: HLA B27 |
| VHQAISPRTLNAWVKC [p24-2, NH2 -valine-histidine-glutamine-alanine-isoleucine-serine-proline-arginine-threonine-leucine-asparagine-alanine -tryptophan-valine-lysine-cysteine-COOH] | HLA-A23 or A30 or B8 |  |
| VQNANPDCKTILKALY [p24-20, NH2 -valine-glutamine-asparagine-alanine-asparagine-proline-aspartic acid-cysteine-lysine-threonine-isoleucine-leucine-lysine-alanine-leucine-tyrosine-COOH] |  | HLA class I molecule with which the peptide interacts specifically [1]: HLA B8; recognition of the peptide by a seropositive donor ([1]; seropositive donor, HLA type as printed): recognised by a seropositive donor of the HLA type HLA-A3, 29B44, 14 |
